Experimental data: ChEMBL document CHEMBL1201862, “PubChem BioAssay data set” (2004)
Calls of active or inactive are those of the source.

How the values were obtained:
[1] = target: T1, Heat shock factor protein 1 (Mus musculus, UniProt P38532); experiment: inhibition of MG132-induced HSE-luciferase signal, confirmation, cell-based, NIH3T3, luminescence, dose retest (AID 2382); type: functional;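 note: NIH3T3 fibroblasts with HSF1-driven luciferase reporter stressed by proteasome inhibitor MG132; luminescence from HSF1-driven luciferase expression after 8 hours of MG132 stress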
T1 sequence (P38532 whole entry): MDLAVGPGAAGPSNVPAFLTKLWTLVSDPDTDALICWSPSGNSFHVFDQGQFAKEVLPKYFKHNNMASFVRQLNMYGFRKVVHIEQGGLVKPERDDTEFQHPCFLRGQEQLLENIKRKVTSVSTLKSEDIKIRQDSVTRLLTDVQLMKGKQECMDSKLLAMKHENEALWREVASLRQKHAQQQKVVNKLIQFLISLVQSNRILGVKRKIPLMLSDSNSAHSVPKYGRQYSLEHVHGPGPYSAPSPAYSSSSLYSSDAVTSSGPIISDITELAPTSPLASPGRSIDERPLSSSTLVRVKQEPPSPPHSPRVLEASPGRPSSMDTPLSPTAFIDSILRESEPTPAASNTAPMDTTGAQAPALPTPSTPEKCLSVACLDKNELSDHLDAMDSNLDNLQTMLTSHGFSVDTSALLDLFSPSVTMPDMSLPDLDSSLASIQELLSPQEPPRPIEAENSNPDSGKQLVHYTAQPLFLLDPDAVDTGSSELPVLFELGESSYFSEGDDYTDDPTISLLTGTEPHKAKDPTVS

Cytochrome P450 2C19 = Cytochrome P450 2C19 (Homo sapiens, UniProt P33261); experiment: Cytochrome panel assay with activity outcomes. Panel member name: p450-cyp2c19 Compounds with AC50 equal or less than 10 uM are considered active; type: functional
Chain of Cytochrome P450 2C19 (P33261 whole entry): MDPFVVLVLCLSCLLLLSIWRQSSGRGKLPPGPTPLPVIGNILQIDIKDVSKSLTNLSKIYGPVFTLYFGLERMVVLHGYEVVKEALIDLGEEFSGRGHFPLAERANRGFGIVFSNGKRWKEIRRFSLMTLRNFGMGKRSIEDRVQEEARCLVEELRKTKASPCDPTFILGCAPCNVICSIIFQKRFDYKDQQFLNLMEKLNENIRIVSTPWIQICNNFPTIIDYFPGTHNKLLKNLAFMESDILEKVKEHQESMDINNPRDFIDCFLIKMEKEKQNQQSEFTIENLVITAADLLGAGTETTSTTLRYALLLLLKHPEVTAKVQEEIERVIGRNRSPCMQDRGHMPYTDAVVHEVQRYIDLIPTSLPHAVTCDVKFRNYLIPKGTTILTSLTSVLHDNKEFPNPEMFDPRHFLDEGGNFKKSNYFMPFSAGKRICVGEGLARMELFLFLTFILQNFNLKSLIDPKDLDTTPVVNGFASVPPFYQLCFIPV

Cytochrome P450 3A4 = Cytochrome P450 3A4 (Homo sapiens, UniProt P08684);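 note: CYP3A4 tested as one member of a cytochrome P450 panel screen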
Chain of Cytochrome P450 3A4 (P08684 whole entry): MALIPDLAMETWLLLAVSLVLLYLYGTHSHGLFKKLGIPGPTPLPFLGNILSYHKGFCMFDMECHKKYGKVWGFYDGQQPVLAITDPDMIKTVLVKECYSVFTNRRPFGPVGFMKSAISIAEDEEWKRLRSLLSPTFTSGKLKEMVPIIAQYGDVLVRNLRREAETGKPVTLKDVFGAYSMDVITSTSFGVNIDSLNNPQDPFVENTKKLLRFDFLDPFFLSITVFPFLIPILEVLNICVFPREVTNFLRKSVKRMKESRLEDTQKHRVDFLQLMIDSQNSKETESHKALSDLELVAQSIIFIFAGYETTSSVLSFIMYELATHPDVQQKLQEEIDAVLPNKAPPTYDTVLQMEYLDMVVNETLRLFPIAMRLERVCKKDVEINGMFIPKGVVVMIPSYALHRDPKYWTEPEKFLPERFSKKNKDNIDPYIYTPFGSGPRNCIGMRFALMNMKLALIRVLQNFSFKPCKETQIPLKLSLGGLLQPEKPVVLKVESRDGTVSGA

Protein RecA = target: T2, Protein RecA (Mycobacterium tuberculosis, UniProt P9WHJ3); experiment: Fluorescence Cell-Free Homogeneous Dose Retest to Identify Inhibitors of RecA-Intein Splicing Activity. [Related pubchem assays (depositor defined):AID2097, AID2223, AID489010, AID492950]; type: functional
T2 sequence (P9WHJ3 whole entry): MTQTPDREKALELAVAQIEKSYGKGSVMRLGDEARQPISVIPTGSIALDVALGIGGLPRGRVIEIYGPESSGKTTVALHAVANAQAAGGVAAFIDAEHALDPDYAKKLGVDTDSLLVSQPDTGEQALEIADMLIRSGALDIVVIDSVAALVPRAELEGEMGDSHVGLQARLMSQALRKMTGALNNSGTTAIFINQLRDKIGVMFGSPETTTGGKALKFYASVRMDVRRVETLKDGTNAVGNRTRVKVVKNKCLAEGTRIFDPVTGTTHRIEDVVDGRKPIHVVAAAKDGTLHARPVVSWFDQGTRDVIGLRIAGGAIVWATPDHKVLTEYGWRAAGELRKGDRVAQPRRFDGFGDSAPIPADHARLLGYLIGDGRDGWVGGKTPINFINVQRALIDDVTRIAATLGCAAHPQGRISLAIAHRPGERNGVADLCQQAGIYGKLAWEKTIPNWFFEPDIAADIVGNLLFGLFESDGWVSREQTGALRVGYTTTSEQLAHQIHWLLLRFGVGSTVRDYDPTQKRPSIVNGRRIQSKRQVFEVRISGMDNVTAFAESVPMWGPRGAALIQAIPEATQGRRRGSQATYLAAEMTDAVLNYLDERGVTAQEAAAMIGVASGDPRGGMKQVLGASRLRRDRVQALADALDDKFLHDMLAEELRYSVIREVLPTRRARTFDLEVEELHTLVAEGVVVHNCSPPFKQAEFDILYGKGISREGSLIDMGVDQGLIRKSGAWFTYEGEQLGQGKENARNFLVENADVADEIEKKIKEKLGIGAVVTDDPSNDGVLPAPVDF

[2] = target: T3, Replicative DNA helicase DnaB (Mycobacterium tuberculosis, UniProt P9WMR3); experiment: DnaB intein splicing inhibitors, dose response, biochemical, cell-free fluorescence (AID 449749); type: functional
T3 sequence (P9WMR3 whole entry): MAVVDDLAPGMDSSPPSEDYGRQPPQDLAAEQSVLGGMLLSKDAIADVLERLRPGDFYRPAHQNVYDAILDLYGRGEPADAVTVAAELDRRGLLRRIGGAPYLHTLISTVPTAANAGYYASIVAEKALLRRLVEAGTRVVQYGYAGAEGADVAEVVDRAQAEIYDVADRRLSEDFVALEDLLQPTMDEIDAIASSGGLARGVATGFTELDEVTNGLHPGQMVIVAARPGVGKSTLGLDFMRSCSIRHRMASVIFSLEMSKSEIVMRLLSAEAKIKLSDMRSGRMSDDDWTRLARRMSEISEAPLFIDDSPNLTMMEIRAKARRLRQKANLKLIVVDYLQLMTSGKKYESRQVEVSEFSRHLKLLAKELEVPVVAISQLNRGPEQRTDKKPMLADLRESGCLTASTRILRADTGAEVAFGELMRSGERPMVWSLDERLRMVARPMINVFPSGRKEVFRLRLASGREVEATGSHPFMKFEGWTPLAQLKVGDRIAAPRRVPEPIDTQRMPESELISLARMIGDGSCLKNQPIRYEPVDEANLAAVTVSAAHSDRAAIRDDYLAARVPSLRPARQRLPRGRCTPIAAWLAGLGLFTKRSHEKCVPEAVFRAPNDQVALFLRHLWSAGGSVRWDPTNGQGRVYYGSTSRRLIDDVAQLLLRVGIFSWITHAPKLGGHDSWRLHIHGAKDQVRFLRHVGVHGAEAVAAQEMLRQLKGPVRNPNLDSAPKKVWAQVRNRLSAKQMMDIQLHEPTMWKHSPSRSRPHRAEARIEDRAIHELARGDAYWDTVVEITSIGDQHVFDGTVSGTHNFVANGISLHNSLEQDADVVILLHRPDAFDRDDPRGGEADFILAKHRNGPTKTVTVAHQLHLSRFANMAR

Cytochrome P450 1A2 = target: T4, Cytochrome P450 1A2 (Homo sapiens, UniProt P05177);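 note: PubChem cytochrome P450 panel assay, CYP1A2 panel member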
T4 sequence (P05177 whole entry): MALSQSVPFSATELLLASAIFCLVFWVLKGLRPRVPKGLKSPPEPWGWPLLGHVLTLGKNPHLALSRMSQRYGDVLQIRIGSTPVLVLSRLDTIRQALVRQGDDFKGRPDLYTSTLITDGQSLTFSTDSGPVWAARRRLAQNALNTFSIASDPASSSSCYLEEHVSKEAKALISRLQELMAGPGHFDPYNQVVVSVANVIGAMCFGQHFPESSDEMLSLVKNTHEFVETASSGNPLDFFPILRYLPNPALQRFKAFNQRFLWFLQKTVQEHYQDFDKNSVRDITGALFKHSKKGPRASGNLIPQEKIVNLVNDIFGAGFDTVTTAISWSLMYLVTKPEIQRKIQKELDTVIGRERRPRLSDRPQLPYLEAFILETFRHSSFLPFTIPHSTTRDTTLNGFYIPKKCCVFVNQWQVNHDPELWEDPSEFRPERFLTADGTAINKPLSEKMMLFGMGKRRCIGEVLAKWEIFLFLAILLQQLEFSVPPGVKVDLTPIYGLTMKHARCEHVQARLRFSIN

## Cc1ccc(Cn2c(C3CCCN3c3nc(C)cs3)nc3cc(C(F)(F)F)ccc32)cc1 (centres undefined)
[1]
  EC50: > 195 µM (not active)

## COc1ccc(-c2cc(C(=O)NCc3cccnc3)no2)cc1OC
Cytochrome P450 2C19; read-out: AC50
  AC50: 28.2 µM (inconclusive)

## COc1ccc(-c2nc(CSCC(=O)NCC3CCCO3)c(C)o2)cc1OC (centres undefined)
Cytochrome P450 2C19; read-out: AC50
  AC50: 31.6 µM (inconclusive)
Cytochrome P450 3A4
  AC50: 39.8 µM (inconclusive)

## O=C(c1ccco1)N1CCN=C1SCc1ccccc1F
[1]
  EC50: > 195 µM (not active)

## N#C/C(=N\O)c1nc(-c2ccccc2)cs1
Cytochrome P450 2C19; read-out: AC50
  AC50: 39.8 µM (inconclusive)
Cytochrome P450 3A4
  AC50: 15.8 µM (inconclusive)

## O=C(c1cccs1)[C@@H]1[C@@H]2C(=O)N(Cc3ccc4c(c3)OCO4)C(=O)[C@@H]2C2c3ccccc3C=CN21 (some centres undefined)
Protein RecA
  EC50: 3.22 µM (active)
[2]
  AC50: 4.09 µM (active)

## O=C(CN1C(=O)c2ccccc2S1(=O)=O)NCc1cccs1
[1]
  EC50: > 195 µM (not active)

## COc1cc(/C=N/NC(=O)c2ccc(F)cc2)ccc1OC(=O)c1ccco1
Protein RecA
  EC50: 20 µM (active)
[2]
  AC50: 24 µM (active)

## CCOc1cc(/C=N/NC(=O)CN2CCCCC2)ccc1OCc1ccccc1
Cytochrome P450 2C19; read-out: AC50
  AC50: 25.1 µM (inconclusive)

## O=C1C(Cl)=C(N2CCCCCC2)C(=O)N1c1ccccc1
Protein RecA
  EC50: 10.3 µM (active)
[2]
  AC50: > 380 µM (inactive)

## CCSc1c([N+](=O)[O-])c(=O)n(-c2ccccc2)c2ccccc12
Protein RecA
  EC50: 155 µM (active)
[2]
  AC50: 3.94 µM (active)

## O=C(NC(=S)NC1C2CC3CC(C2)CC1C3)c1ccccc1 (centres undefined)
[1]
  EC50: > 195 µM (not active)

## Cn1cc(-c2nc3cnc(N4CCOCC4)nc3n(C3CC3)c2=O)c2ccccc21
Cytochrome P450 2C19
  AC50: inconclusive
Cytochrome P450 3A4
  AC50: 7.94 µM (inconclusive)
Cytochrome P450 1A2
  AC50: 3.16 µM (inconclusive)

## CCOC(=O)CSc1nc(C)cc(Oc2ccc(=O)n(C)n2)n1
[1]
  EC50: 28.1 µM (active)

## CCOc1cc(/C=C2\C(=O)N(CCC#N)N=C2C)ccc1OCC(N)=O
Protein RecA
  EC50: 3.61 µM (active)
[2]
  AC50: 6.01 µM (active)

## Fc1ccc(Oc2nc(-c3ccccc3)nnc2C(F)(F)F)cc1
Protein RecA
  EC50: 2.28 µM (active)
[2]
  AC50: 2.95 µM (active)

## Cc1ccc2c(c1)c1c(n2CC(O)CN2CCOCC2)CCCC1 (centres undefined)
[1]
  EC50: > 195 µM (not active)

## N#CCCn1c(=O)c(CCc2ccccc2)nc2cnc(OCc3ccccc3)nc21
Cytochrome P450 2C19; read-out: AC50
  AC50: 39.8 µM (inconclusive)
Cytochrome P450 3A4
  AC50: 0.2 µM (inconclusive)
Cytochrome P450 1A2
  AC50: 12.6 µM (inconclusive)

## COC1(OC)N=C(NC(=O)Nc2ccccc2)C2(C#N)C(c3ccccc3)C12C#N (centres undefined)
Cytochrome P450 2C19; read-out: AC50
  AC50: 5.01 µM (inconclusive)
Cytochrome P450 1A2
  AC50: 39.8 µM (inconclusive)

## O=C(c1cc(F)c(F)cc1Cl)N1CCN(c2ccc([N+](=O)[O-])c3ncccc23)CC1
Protein RecA
  EC50: 11.8 µM (active)
[2]
  AC50: 3.47 µM (active)

## COc1ccc(CNC(=O)CCCCCNC(=O)N2CCn3c2nc2ccccc23)cc1
[1]
  EC50: > 195 µM (not active)

## O=C(O)c1cccc(Cn2c(Cl)c(/C=N/Nc3ccccc3)sc2=O)c1
Protein RecA
  EC50: > 380 µM (inactive)
[2]
  AC50: > 380 µM (inactive)

## O=C(Oc1ccc(OC(=O)c2ccco2)c(S(=O)(=O)c2ccc(Br)cc2)c1)c1ccco1
Cytochrome P450 2C19; read-out: AC50
  AC50: 1.41 µM (inconclusive)
Cytochrome P450 3A4
  AC50: 5.62 µM (inconclusive)
Cytochrome P450 1A2
  AC50: 2.24 µM (inconclusive)

## CN1CCN(Cc2cc(=O)oc3ccc(Cl)cc23)CC1
Protein RecA
  EC50: > 380 µM (inactive)
[2]
  AC50: > 380 µM (inactive)

## Cc1ccc(S(=O)(=O)N2CCN(S(C)(=O)=O)C2)cc1
[1]
  EC50: > 195 µM (not active)

## O=C(O)CCCNC(=O)CCCNC(=O)C(c1ccccc1)c1ccccc1
[1]
  EC50: > 195 µM (not active)

## N#C[C@H]1[C@H](c2ccccc2)[C@](C#N)(C(=O)c2ccccc2)[C@@H]2C=Cc3ccccc3N21
Protein RecA
  EC50: 8.36 µM (active)
[2]
  AC50: > 380 µM (inactive)

## COc1ccc(-c2noc(CCC(=O)Nc3ccc(C)c(C)c3)n2)cc1
[1]
  EC50: > 195 µM (not active)

## O=C(O)c1cccc2cc(-c3ccccc3)oc(=O)c12
[1]
  EC50: > 195 µM (not active)

## COC(=O)c1cc(NC(=O)Nc2ccccc2OC)cc(C(=O)OC)c1
Protein RecA
  EC50: > 380 µM (inactive)

## CCCC[C@@H](CNC)NC[C@H](Cc1ccc(O)cc1)NCCc1ccc(OCC)cc1
[1]
  EC50: > 195 µM (not active)

## CCOC(=O)N1CCN(C(=O)c2ccc(CS(=O)(=O)c3c(Cl)cccc3Cl)o2)CC1
[1]
  EC50: > 195 µM (not active)

## Cc1n[nH]c(O)c1C(c1cc2c(cc1Br)OCO2)c1c(C)n[nH]c1O
Protein RecA
  EC50: 0.352 µM (active)
[2]
  AC50: 0.723 µM (active)

## N[C@]1(C(=O)O)CCc2cc(P(=O)(O)O)ccc21
Cytochrome P450 2C19; read-out: AC50
  AC50: 15.8 µM (inconclusive)
Cytochrome P450 1A2
  AC50: 39.8 µM (inconclusive)

## CC(=O)c1c(N2CCC(C(N)=O)CC2)nc(=S)n(-c2ccccc2)c1C
Cytochrome P450 2C19; read-out: AC50
  AC50: 31.6 µM (inconclusive)

## O=C(CSC(=S)N1CCOCC1)Nc1nc(-c2ccccc2)c(-c2ccccc2)o1
[1]
  EC50: > 195 µM (not active)

## Cc1ccc(SC(C)C(=O)NCc2cccnc2)cc1 (centres undefined)
Cytochrome P450 2C19; read-out: AC50
  AC50: 7.08 µM (inconclusive)
Cytochrome P450 3A4
  AC50: 1 µM (inconclusive)
